Assays:
[1] = tested on: intramacrophagic iRFP-L. infantum amastigotes from murine spleens; assay: Ex vivo intramacrophagic amastigote viability assay (iRFP fluorescence); format: cell-based, Leishmania infantum; details: for EC50: Leishmania infantum, ex vivo murine splenic explants, 72 h, read-out: Intracellular Amastigotes EC50; for SI: ratio CC50 (splenic macrophages) / EC50 (intramacrophagic amastigotes); for antileishmanial activity against Leishmania amastigotes (in words): summary in discussion
Protocol: (§1) The 1,5- and 1,8-fused naphthyridine derivatives were evaluated as antileishmanial agents in assays using two forms of L. infantum amastigotes: axenic amastigotes recovered from bone marrow cells of infected BALB/c mice and intramacrophagic amastigotes obtained from splenic explants of the same subjects. The L. infantum strain used is a genetically modified strain previously engineered by our group to constitutively express the infrared protein iRFP from Rhodopseudomonas palustris bacteriophytochrome (iRFP L. infantum). This strain allows monitoring the viability of both forms of the parasite by quantifying the fluorescence emitted at 700 nm by the iRFP protein produced by living amastigotes.
(§2) Amastigotes obtained from mouse bone marrow cells were used to perform a first screening with the complete series of fused 1,5- and 1,8-naphthyridines. […] The toxicity of these selected compounds was assessed in non-infected splenic cells and the cytotoxic concentration (CC50) value obtained was used to calculate the selective index (SI). The oral tolerability of these same compounds was tested by calculating the viability of murine intestinal organoids exposed to two concentrations (50 and 25 µM).
Intramacrophagic amastigotes were obtained by cutting spleens into small pieces that were incubated for 25 min with 0.5 mL of collagenase D (2 mg/mL) (Merck, Darmstadt, Germany) dissolved in 4.5 mL buffer (10 mM HEPES, pH 7.4, 150 mM NaCl, 5 mM KCl, 1 mM MgCl2 and 1.8 mM CaCl2). The cell suspension was filtered through a 100 µm cell strainer. After erythrocyte lysis (150 mM NH4Cl, 1 mM KHCO3, 0.1 mM EDTA), splenocytes were centrifuged three times at 500× g for 7 min at 4 °C, with PBS washes between each centrifugation. The splenocyte suspension containing intramacrophagic amastigotes was resuspended in RPMI medium (Gibco, Fisher Scientific, Waltham, MA, USA) supplemented with 20% FBS, 1 mM sodium pyruvate, 24 mM NaHCO3, 2 mM L-glutamine, 1× RPMI vitamins, 25 mM HEPES and antibiotic cocktail.
For the ex vivo intramacrophagic amastigote assay, 40 μL of one-half or one-third serial dilutions of each diluted in supplemented RPMI medium, were added to black 384-well optical-bottom black plates containing 40 μL of murine splenocytes obtained as described above. Positive controls (containing 10 μM of AMB) and negative controls (containing 0.1% v/v DMSO) were included. The plates were incubated at 37 °C and 5% CO2, for a maximum period of 72 h and the assays were performed by triplicate.
(§3) The viability of axenic and intramacrophage amastigotes was calculated measuring the fluorescence emitted at 700 nm by the iRFP protein from live parasites and recorded by an Odyssey infrared imaging system (Li-Cor, NE, USA). The fluorescence emitted by the negative control wells was considered 100% viability, whereas the fluorescence emitted by the positive control wells, was adjusted to 0% viability.
Fluorescence emitted by intramacrophage amastigotes were plotted against the drug concentration using the nonlinear fit analysis provided by the Sigma Plot 10.1 statistical package to obtain EC50 values.

[2] = Cytotoxicity in uninfected murine splenic cells (alamarBlue); format: cell-based, mouse; details: mouse; uninfected splenic cells, 72 h, alamarBlue; read-out: Mouse Splenic Macrophages CC50
Protocol: Amastigotes obtained from mouse bone marrow cells were used to perform a first screening with the complete series of fused 1,5- and 1,8-naphthyridines. […] The toxicity of these selected compounds was assessed in non-infected splenic cells and the cytotoxic concentration (CC50) value obtained was used to calculate the selective index (SI). The oral tolerability of these same compounds was tested by calculating the viability of murine intestinal organoids exposed to two concentrations (50 and 25 µM). In order to assess the in vitro safety of the naphthyridines, cytotoxicity assays were carried out in ex vivo splenic explants from uninfected mice, which were prepared as previously described to obtain intramacrophagic amastigotes. Cells were seeded at a density of 1 × 10^6 cells per well in 96-well plates containing the prediluted compounds and incubated at 37 °C and 5% CO2 during 72 h. AlamarBlue assay (Invitrogen, Fisher Scientific, Waltham, MA, USA) was used to estimate cell viability following manufacturer’s recommendations. The assays were performed by triplicate. Absorbance of viable cells vs. compound concentrations were fitted by nonlinear analysis using the Sigma Plot 10.1 statistical package to calculate the cytotoxic concentration 50 (CC50) values. Selectivity index (SI) was calculated as the ratio between CC50 and the EC50 values of intramacrophagic amastigotes.

[3] = tested on: axenic iRFP-L. infantum amastigotes from bone marrow cells; assay: Axenic amastigote viability assay (iRFP fluorescence, first screening); format: cell-based; details: Leishmania infantum, Bone marrow cell, cut-off 25 µM, 72 h, read-out: Axenic Amastigotes (concentration with inhibition)
Protocol: as §1, §2
To obtain iRFP-L. infantum axenic amastigotes, femur and tibia were carefully cut at both ends, and marrow cells were removed by passing PBS through the medullary cavity with a 29G needle. The bone marrow cell suspension was filtered through a 100 µm cell strainer and centrifuged at 3500× g for 10 min at room temperature. After centrifugation, cells were resuspended in amastigote culture medium: 15 mM KCl; 136 mM KH2PO4; 10 mM K2HPO4·3H2O; 0.5 mM MgSO4. 7H2O; 24 mM NaHCO3; 22 mM glucose; 1 mM glutamine, 1xRPMI 1640 vitamin mix (Sigma-Aldrich, Merck, Darmstadt, Germany), 10 mM folic acid, 100 mM adenosine, 1xRPMI amino acid mix (Sigma-Aldrich, Merck, Darmstadt, Germany), 5 mg/mL hemin, antibiotic cocktail, 25 mM MES and 10% FBS, and incubated at 37 °C.
To test the antileishmanial effect of naphthyridines on axenic amastigotes, 40 μL of a suspension containing 3 × 10^4 iRFP-L. infantum parasites per well were incubated with another 40 μL of the drugs dilutions in amastigote culture medium with 7.5% FBS. Incubations were performed in 384-well black microtiter plates with an optical bottom at 37 °C and 5% CO2 for 72 h. Solutions of 0.1% (v/v) DMSO and 10 μM AMB were used as negative and positive controls, respectively. The assays were performed by triplicate.
as §3

Structure (SMILES) | EC50 [1] [µM] | SI [1] | CC50 at 72 h [2] [µM] | minimal effective concentration [3] [µM] | antileishmanial activity against Leishmania amastigotes (in words) [1]
O=C1Oc2ccccc2C2Nc3ccc(Br)nc3[C@@H](c3ccccc3)C12 (some centres unmarked) [Compound 6b] | 12.9 ± 0.82 | 4.3 | 55.7 ± 6.42 | < 25 | –
COc1ccc2nc3c(c(-c4ccccc4)c2n1)c(=O)oc1ccccc13 [Compound 7c] | 37 ± 2.87 | 2.6 | 97.7 ± 1.77 | < 25 | –
Cc1ccc(S(=O)(=O)N2CC3C(Nc4cccnc4[C@H]3c3ccccc3)c3ccccc32)cc1 (some centres unmarked) [Compound 8a] | 5.3 ± 0.71 | 8.5 | 45 ± 3.91 | < 25 | –
COc1ccc2c(n1)[C@@H](c1ccccc1)C1CN(S(=O)(=O)c3ccc(C)cc3)c3ccccc3C1N2 (some centres unmarked) [Compound 8c] | 4.93 ± 0.35 | – | > 100 | < 25 | –
Cc1ccc(S(=O)(=O)N2CC3C(Nc4ccc(Br)nc4[C@H]3c3ccccc3)c3ccccc32)cc1 (some centres unmarked) [Compound 8d] | 34.4 ± 9.7 | – | > 50 | < 25 | –
Fc1ccc2c(c1)C1Nc3ncccc3[C@@H](c3ccccc3)C1CO2 (some centres unmarked) [Compound 10b] | 7.57 ± 0.44 | 6.7 | 50.7 ± 0.99 | < 25 | –
c1ccc(-c2c3c(nc4ncccc24)-c2ccccc2OC3)cc1 [Compound 11a] | 7.7 ± 0.29 | – | > 100 | < 25 | –
O=c1oc2ccccc2c2nc3ncccc3c(-c3ccccc3)c12 [Compound 13a] | 10.6 ± 1.21 | 3.3 | 34.6 ± 1.79 | < 25 | significant antileishmanial activity
O=c1oc2ccccc2c2nc3ncc(Br)cc3c(-c3ccccc3)c12 [Compound 13b] | 7.53 ± 0.97 | >6.6 | > 50 | < 25 | –
Cc1ccc(S(=O)(=O)N2CC3C(Nc4ncccc4C3c3ccccc3)c3ccccc32)cc1 (centres unmarked) [Compound 14a] | 9.34 ± 0.77 | 2.9 | 27.2 ± 1.55 | < 25 | significant antileishmanial activity
Cc1ccc(S(=O)(=O)N2Cc3c(nc4ncc(Br)cc4c3-c3ccccc3)-c3ccccc32)cc1 [Compound 15b] | 6.16 ± 0.54 | 4.0 | 24.6 ± 3.59 | < 25 | significant antileishmanial activity
